# Source: PubChem BioAssay AID330 (DTP/NCI, 2004)
# Values joined by “and” are separate entries in the source; they are usually repeats but may differ in a detail not shown here. Equal entries are not always repeated. Inconclusive results and toxic doses are left out.
# System: P388 leukemia ip, CD2F1 mice, survival T/C
# Test: NCI In Vivo Anticancer Drug Screen. Data for tumor model P388 Leukemia (intraperitoneal) in CD2F1 (CDF1) mice
# Details: endpoint: median survival time, higher = longer survival
# Summary of the method: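 Mice carrying the transplanted tumor received test compound or vehicle. Survival was recorded in each group, and the value is the treated-group measurement divided by that of the vehicle-treated control group.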
# [1] = dose: 50.0 mg/kg/injection, schedule: Q01DX005 (ip), vehicle: saline with Tween-80
# [2] = dose: 100.0 mg/kg/injection, schedule: Q01DX005 (ip), vehicle: saline with Tween-80
# [3] = dose: 200.0 mg/kg/injection, schedule: Q01DX005 (ip), vehicle: saline with Tween-80
smiles,measurement,setting,value
CCN(CC)CCCC(Nc1c2ccc(Cl)cc2nc2ccc(OC)cc12)c1ccc(F)cc1 (stereo not drawn),T/C,"dose: 12.5 mg/kg/injection, schedule: Q01DX005 (ip), vehicle: saline with Tween-80",96 % of control
same,T/C,"dose: 25.0 mg/kg/injection, schedule: Q01DX005 (ip), vehicle: saline with Tween-80",98 % of control
same,T/C,[1],100 % of control and 107 % of control
c1ccc(-n2nc3c(c2-c2cccnc2)Cc2ccccc2-3)cc1,T/C,[1],101 % of control
same,T/C,[2],100 % of control
same,T/C,[3],98 % of control
CCCCS(=N)(=O)CCC(N)P(=O)(O)O (stereo not drawn),T/C,"dose: 50.0 mg/kg/injection, schedule: Q01DX005 (ip), vehicle: saline",93 % of control
same,T/C,"dose: 100.0 mg/kg/injection, schedule: Q01DX005 (ip), vehicle: saline",100 % of control
same,T/C,"dose: 200.0 mg/kg/injection, schedule: Q01DX005 (ip), vehicle: saline",95 % of control
O=C(O)C(c1ccccc1)N1C(=O)C(Cl)=C(Cl)C1=O (stereo not drawn),T/C,"dose: 15.0 mg/kg/injection, schedule: Q01DX005 (ip), vehicle: saline with Tween-80",94 % of control
same,T/C,"dose: 30.0 mg/kg/injection, schedule: Q01DX005 (ip), vehicle: saline with Tween-80",100 % of control
same,T/C,"dose: 60.0 mg/kg/injection, schedule: Q01DX005 (ip), vehicle: saline with Tween-80",103 % of control and 112 % of control
Nc1nc(=O)n(C2OC(CO)C(O)C2O)cc1F (stereo not drawn),T/C,"dose: 9.0 mg/kg/injection, schedule: Q01DX009 (ip), vehicle: saline sonified",190 % of control
same,T/C,"dose: 9.0 mg/kg/injection, schedule: Q04DX003 (ip), vehicle: saline sonified",154 % of control
same,T/C,"dose: 18.0 mg/kg/injection, schedule: Q01DX009 (ip), vehicle: saline sonified",200 % of control
same,T/C,"dose: 18.0 mg/kg/injection, schedule: Q04DX003 (ip), vehicle: saline sonified",162 % of control
same,T/C,"dose: 24.0 mg/kg/injection, schedule: Q04DX003 (ip), vehicle: saline with Tween-80",181 % of control
same,T/C,"dose: 36.0 mg/kg/injection, schedule: Q01DX009 (ip), vehicle: saline sonified",236 % of control
same,T/C,"dose: 36.0 mg/kg/injection, schedule: Q04DX003 (ip), vehicle: saline sonified",162 % of control
same,T/C,"dose: 36.0 mg/kg/injection, schedule: Q04DX003 (ip), vehicle: saline with Tween-80",172 % of control
same,T/C,"dose: 54.0 mg/kg/injection, schedule: Q04DX003 (ip), vehicle: saline with Tween-80",186 % of control
O=C(Oc1cc(Cl)ccc1Cl)c1ccccc1,T/C,"dose: 12.5 mg/kg/injection, schedule: Q01DX009 (ip), vehicle: saline with Tween-80",109 % of control and 96 % of control
same,T/C,"dose: 25.0 mg/kg/injection, schedule: Q01DX009 (ip), vehicle: saline with Tween-80",100 % of control and 98 % of control
same,T/C,"dose: 50.0 mg/kg/injection, schedule: Q01DX009 (ip), vehicle: saline with Tween-80",100 % of control and 102 % of control
same,T/C,"dose: 100.0 mg/kg/injection, schedule: Q01DX009 (ip), vehicle: saline with Tween-80",102 % of control and 91 % of control
O=C1CCSC(=O)N1c1ccccc1,T/C,[1],108 % of control
same,T/C,[2],100 % of control
same,T/C,[3],105 % of control
C[C@]12C=CC(=O)C=C1CC[C@@H]1[C@@H]2C(=O)C[C@@]2(C)[C@H]1CC[C@]2(O)C(=O)COC(=O)CSc1c2ccccc2nc2ccccc12,T/C,"dose: 12.5 mg/kg/injection, schedule: Q01DX005 (ip), vehicle: Klucel (hydroxypropylcellulose) (HPC)",103 % of control
same,T/C,"dose: 25.0 mg/kg/injection, schedule: Q01DX005 (ip), vehicle: Klucel (hydroxypropylcellulose) (HPC)",100 % of control
same,T/C,"dose: 50.0 mg/kg/injection, schedule: Q01DX005 (ip), vehicle: Klucel (hydroxypropylcellulose) (HPC)",104 % of control and 107 % of control
same,T/C,"dose: 100.0 mg/kg/injection, schedule: Q01DX005 (ip), vehicle: Klucel (hydroxypropylcellulose) (HPC)",107 % of control
same,T/C,"dose: 200.0 mg/kg/injection, schedule: Q01DX005 (ip), vehicle: Klucel (hydroxypropylcellulose) (HPC)",102 % of control
CN1CCC/C1=C\C(=O)c1ccc([N+](=O)[O-])cc1,T/C,"dose: 100.0 mg/kg/injection, schedule: Q04DX003 (ip), vehicle: Klucel (hydroxypropylcellulose) (HPC)",107 % of control
same,T/C,"dose: 200.0 mg/kg/injection, schedule: Q04DX003 (ip), vehicle: Klucel (hydroxypropylcellulose) (HPC)",107 % of control
same,T/C,"dose: 400.0 mg/kg/injection, schedule: Q04DX003 (ip), vehicle: Klucel (hydroxypropylcellulose) (HPC)",93 % of control
CCCCN(CCCC)CC(O)c1cccc2cc(Cl)ccc12 (stereo not drawn),T/C,[1],104 % of control
same,T/C,[2],109 % of control
